One assay deals with PPRE luciferase. In words: PPRE luciferase activation, transient transfection reporter assay (test (a)). As to conditions: positive in 184B5, 184B5/HER, HCA7, HCT116, SKBR3 and BT474 cells; 24 h treatment. It counts as cell-based, human. An excerpt: We turn now to criterion (a), that is activation of PPRE luciferase by at least 100%. PPRE-luciferase refers to a DNA construct containing the peroxisome proliferator activated receptor (PPAR) binding element joined to luciferase. Cells are transfected with PPRE-luciferase DNA. Ligands of PPAR induce luciferase activity. The ability of a test compound to stimulate PPRE-luciferase signifies that the test compound activates PPAR-mediated gene transcription. PPRE means peroxisome proliferator response element and the method by which PPRE-luciferase is constructed is described in Schoonjans, K., et al, J. Biol. Chem. 270, No. 33, 19269-19276 (Aug. 18, 1995). Use of PPRE-luciferase in a transient transfection to measure increase in promoter activity is disclosed in Subbaramaiah, K. et al, J. Biol. Chem. 270, No. 15, 12440-12448 (Apr. 13, […]).
For each well, 1.8 μg of PPRE3-tk-luciferase construct plasmid DNA (described in Forman, B. M., et al, Cell 83, 803 (1995)) plus 0.2 μg of pSV-β-galactosidase were introduced into cells using 8 μg of LipofectAMINE as per the manufacturer's instructions (Invitrogen, CA). After 7 h of incubation, the medium was replaced with basal medium. After transfection, cells were treated with test compound for 24 h. Reporter activities which include luciferase and β-galactosidase were measured in cellular extract 24 h later. Six wells were used for each of the conditions. Luciferase activity represents data that have been normalized with β-galactosidase.
The luciferase assay was performed as per the BD Pharmingen assay reagents. The Enhanced Luciferase Assay Kit provides a firefly luciferase substrate formulation (Substrates A and B) and cell lysis buffer intended for use in measuring luciferase expressed by transfected cells. Media from cell culture plates was removed and rinsed twice with phosphate buffered saline. Enough 1X cell lysis buffer was added to cover cells and incubated at room temperature for 15-20 min. Cells were dislodged by scraping and transferred to microcentrifuge tubes. […] 20-100 μl cell extract was placed into an assay cuvette. One automatic injector type luminometer is used for assay. Manually 100 μl of Substrate A was added to the assay cuvette and automatically 100 μl of Substrate B was injected. Measurements were performed using a luminometer, for a measurement time of 10 seconds.
The β-galactosidase assay was performed as follows:
50 μl of cell lysate from above was incubated with 50 μl of o-nitrophenyl-β-D-galactoside (ONPG; 4 mg/mL) in Z buffer, (Na2HPO4.7H2O (0.06M), NaH2PO4.H2O (0.04M), 1M KCl (0.01M), 1M MgSO4 (0.001M), β-mercaptoethanol (BME) (0.05M) pH 7.0). The reaction was stopped after sufficient yellow color has developed. The yellow color developed is measured at A420 […].
In general terms: Reporter assays use an easily measured gene product as a stand-in for the process of interest.

Assay [1] concerns HPV16 oncoproteins E6 and E7. Briefly: Western and Northern blotting for HPV16 oncoproteins E6 and E7 (test (d)). The following applies: positive in CaSki and SiHa cells. The assay is classed as cell-based, human papillomavirus. Here is the method: We turn now to the criterion (d), that is at least 50% downregulation of expression of HPV16 oncoproteins E6 and E7.
Protein E6 and E7 which are expressed by HPV16 are believed to play a major role in carcinogenesis.
Western blotting and Northern blotting techniques were used to evaluate the expression of HPV E6 and E7 proteins. The cell lines used for the study were CaSKi and SiHa. The cells were treated with the test compound and cell lysate was obtained as described above and subjected to Western blotting analysis. The Western blotting analysis was performed as described above except anti-HPV 16 E7 antibody was used to probe the blot. The antibody was obtained from Santa Cruz Biotechnology, Inc. CA. For Northern blotting, total cellular RNA was isolated from cell monolayers using an RNA isolation kit from QIAGEN Inc. after treatment with the test compound. 10 μg of total cellular RNA per lane were electrophoresed in a formaldehyde-containing 1.2% agarose gel and transferred to nylon-supported membranes. After baking, membranes were prehybridized overnight in a solution containing 50% formamide, 5×sodium chloride-sodium phosphate-EDTA buffer (SSPE), 5×Denhardt's solution, 0.1% SDS and 100 μg/ml single-stranded salmon sperm DNA and then hybridized for 12 h at 42° C. with radiolabeled cDNA probes for human HPV16 E6 or E7 cDNAs and 18S rRNA. E6 and E7 (as described in Woodworth, C. D., Cancer Res. 16, 4397-4402 (2000)) and 18S rRNA probes were labeled with [^32P]-CTP by random priming. After hybridization, membranes were washed twice for 20 min at room temperature in 2×SSPE-0.1% SDS, twice for 20 min in the same solution at 55° C., and twice for 20 min in 0.1×SSPE-0.1% SDS at 55° C. Washed membranes were then subjected to autoradiography.

The next assay has as its system cyclin D1. In words: Western blotting for expression of cyclin D1 (test (c)). The following applies: positive in 184B5, 184B5/HER cells; 24 h; Western blot. The assay is classed as cell-based, human. Here is the method:
Cyclin D1 is a protein that is important in regulating cell proliferation and is described in Ortega, S., et al, Biochimica et Biophysica Acta 1602, 73-87, (2002), the whole of which is incorporated by reference. […] Effects on expression of cyclin D1 was investigated in 184B5, 184B5/HER, HCA7, HCT116, SKBR3 and BT474 cells. The expression was assessed in cells after treatment with test compound or vehicle using 5×10^4 cells for 24 hours. Western blotting technique was used as follows to assess the expression levels of cyclin D1 in cells treated with the test compound and compared to levels in cells treated with vehicle alone. Cell lysates were prepared by treating cells with lysis buffer as described above. […] The resolved proteins were transferred onto nitrocellulose sheets. The nitrocellulose membrane was then incubated with anti-cyclin D1 antiserum. Secondary antibody to IgG conjugated to horseradish peroxidase was used. The various antisera were purchased from Santa Cruz Biotechnology, Inc., CA. The blots were probed with the Renaissance Western blot detection system according to the manufacturer's instructions (PerkinElmer Life Sciences, Boston, Mass.).
For orientation: Immunoblotting shows a protein as a band on a membrane.

Another assay concerns HER-2/neu. Briefly: Western blotting for expression of HER-2/neu (test (b)). The assay is classed as cell-based, human. The following applies: positive in 184B5/HER, BT474 and SKBR3 cells; 24 h; Western blot. An excerpt: We turn now to the criterion (b), that is at least 50% decrease in level of or 50% downregulation of expression of Class I family of receptors tyrosine kinase. The Class I family of receptors tyrosine kinase is described in Reese, M. D., et al Stem Cells 15, pages 1-8 (1997), the whole of which in incorporated herein by reference. Members of the family include HER-2/neu, HER-3, HER-4 and epidermal growth factor receptor (EGFR) and are single-chain membrane spanning proteins which have significant homology to one another including about 80% amino acid identity in the tyrosine kinase domain.
HER-2/neu (erbB-2) gene product is a 185-kDA transmembrane receptor tyrosine kinase that is described in some detail in said Reese et al publication and overexpression thereof has been associated with tumor growth in several kinds of cancer.
To evaluate the expression of Class I family of receptors tyrosine kinase (EGFR, HER-2/neu), Western blotting can be performed. Antibodies for EGFR and HER-2/neu can be obtained from Santa Cruz Biotechnology, Inc.
Expression of EGFR (performed in 184B5, 184B5/HER, 1483, LNCaP, HeLa and CaSki cells)and HER-2/neu (performed in 184B5/HER, SKBR3 and BT474 cells) was assessed in cells after treatment with test compound for 24 hours. 5×10^6 cells were used for the treatment. Western blotting technique was used to assess the expression levels in cells treated with the test compound compared to vehicle alone. Western blotting was carried out as follows:
Cell lysates were prepared by treating cells with lysis buffer (150 mM NaCl, 100 mM Tris (pH 8.0), 1% Tween 20, 50 mM diethyldithiocarbamate, 1 mM EDTA, 1 mM phenylmethylsulfonyl fluoride, 10 μg/ml aprotinin, 10 μg/ml trypsin inhibitor and 10 μg/ml leupeptin). Lysates were sonicated for 20 s on ice and centrifuged at 10,000×g for 10 min to sediment the particulate material. The protein concentration of the supernatant was measured by the method of Lowry, O. H., et al., J. Biol. Chem. 193, 265-275 (195 1). SDS/PAGE was performed under reducing conditions on 10% polyacrylamide gels as described by Laemmli, U.K., Nature (Lond.) 227, 680-685 (1970). The resolved proteins were transferred onto nitrocellulose sheets as detailed by Towbin, H. et al., Proc. Natl. Acad. Sci. USA 76, 4350-4354 (1979). The nitrocellulose membrane was then incubated with anti-EGFR antiserum or anti-HER-2/neu antiserum. Secondary antibody to IgG conjugated to horseradish peroxidase was used. The various antisera were purchased from Santa Cruz Biotechnology, Inc., CA. The blots were probed with the Renaissance Western blot detection system according to the manufacturer's instructions (PerkinElmer Life Sciences, Boston, Mass.).

Consider 2 molecules from US20050031537A1, “Multifunctional COX-2 inhibitors” (priority 2002, published 2005).

On to `COc1ccc2c(c1)c(CC(=O)NCCc1ccccc1)c(C)n2C(=O)c1ccc(Cl)cc1` [Indomethacin Analog 2, N-(2-phenylethyl)-indomethacin amide], for which the “Test (a) activation of PPRE luciferase by at least 100%” value in the assay on PPRE luciferase is recorded as “+ (A plus sign in the table indicates a positive result, that is meeting the test for each cell line as indicated above as providing a positive result)”. The “Test (d) at least 50% downregulation of expression of HPV16 oncoproteins E6 and E7” value in assay [1] is given as “+ (A plus sign in the table indicates a positive result, that is meeting the test for each cell line as indicated above as providing a positive result)”. The “Test (c) at least 50% downregulation of expression of cyclin D1” value in the assay on cyclin D1 was “+ (A plus sign in the table indicates a positive result, that is meeting the test for each cell line as indicated above as providing a positive result)”. The “Test (b) HER-2/neu: at least 50% decrease in level of or 50% downregulation of expression” value in the assay on HER-2/neu is given as “+ (A plus sign in the table indicates a positive result, that is meeting the test for each cell line as indicated above as providing a positive result)”.
For the molecule “1-(p-chlorobenzoyl)-5-methoxy-2-methyl-1H-indole-3-octylacetamide [Indomethacin Analog 6]”, the “Test (a) activation of PPRE luciferase by at least 100%” value in the assay on PPRE luciferase was “+ (A plus sign in the table indicates a positive result, that is meeting the test for each cell line as indicated above as providing a positive result)”. Further, in assay [1], the “Test (d) at least 50% downregulation of expression of HPV16 oncoproteins E6 and E7” value is on record as “+ (A plus sign in the table indicates a positive result, that is meeting the test for each cell line as indicated above as providing a positive result)”.
